Experimental data published in patent US20060276372A1, “Carotenoids, carotenoid analogs, or carotenoid derivatives for the treatment of proliferative disorders” (priority 2005, published 2006).
“Also recorded” adds a separate entry of the source. Counter-ions that a name gives are not always drawn. Like-named read-outs stand apart in the source and are kept apart here.

How the values were obtained:
[1] = Oral administration, pharmacokinetics in mice; assay type: in vivo; settings: oral preparation in lipophilic emulsion, single and multiple dose, murine model
[2] = cited from earlier work
superoxide anion [3] = settings: mM concentrations, aqueous phase; cited from earlier work
[4] = doses up to 75 mg/kg, rat; cited from earlier work
[5] = 50 mg/kg, canines; cited from earlier work
[6] = mice; cited from earlier work
CX43 = settings: aqueous ethanolic formulation, carcinogen-promoted 10T1/2 cells; cited from earlier work
superoxide anion [7] = assay: Direct superoxide anion scavenging by EPR spectroscopy (DEPMPO spin trap), PMA-stimulated isolated human PMNs; assay type: cell-based; settings: aqueous phase; statistical mixture and individual stereoisomers
Description: Leukocyte Isolation and Preparation. Human polymorphonuclear leukocytes (PMNs) were isolated from freshly sampled venous blood of a single volunteer by Percoll density gradient centrifugation as described previously. Briefly, each 10 mL of whole blood was mixed with 0.8 mL of 0.1 M EDTA and 25 mL of saline. The diluted blood was then layered over 9 mL of Percoll at a specific density of 1.080 g/mL. After centrifugation at 400×g for 20 min at 20° C., the plasma, mononuclear cell, and Percoll layers were removed. Erythrocytes were subsequently lysed by addition of 18 mL of ice-cold water for 30 s, followed by 2 mL of 10×PIPES buffer (25 mM PIPES, 110 mM NaCl, and 5 mM KCl, titrated to pH 7.4 with NaOH). Cells were then pelleted at 4° C., the supernatant was decanted, and the procedure was repeated. After the second hypotonic cell lysis, cells were washed twice with PAG buffer [PIPES buffer containing 0.003% human serum albumin (HSA) and 0.1% glucose]. Afterward, PMNs were counted by light microscopy on a hemocytometer. The isolation yielded PMNs with a purity of >95%. The final pellet was then suspended in PAG-CM buffer (PAG buffer with 1 mM CaCl2 and 1 mM MgCl2).
EPR Measurements. All EPR measurements were performed using a Bruker ER 300 EPR spectrometer operating at X-band with a TM110 cavity as previously described. The microwave frequency was measured with a Model 575 microwave counter (EIP Microwave, Inc., San Jose, Calif.). To measure superoxide anion (O2) generation from phorbol-ester (PMA)-stimulated PMNs, EPR spin-trapping studies were performed using the spin trap DEPMPO (Oxis, Portland, Oreg.) at 10 mM. 1×10^6 PMNs were stimulated with PMA (1 ng/mL) and loaded into capillary tubes for EPR measurements. To determine the radical scavenging ability of 3 and 9 in aqueous and ethanolic formulations, PMNs were pre-incubated for 5 minutes with test compound, followed by PMA stimulation.
Instrument settings used in the spin-trapping experiments were as follows: modulation amplitude, 0.32 G; time constant, 0.16 s; scan time, 60 s; modulation frequency, 100 kHz; microwave power, 20 milliwatts; and microwave frequency, 9.76 GHz. The samples were placed in a quartz EPR flat cell, and spectra were recorded. The component signals in the spectra were identified and quantified as reported previously.

[8] = Cardiac ischemia-reperfusion injury, experimental infarction model; assay type: in vivo, rat; settings: intravenous pretreatment, rodents, highest dose tested
[9] = molecular target: human serum albumin (HSA) (Homo sapiens, UniProt P02768); assay: Plasma-protein binding studies in vitro
Sequence of human serum albumin (HSA) (P02768 25-609): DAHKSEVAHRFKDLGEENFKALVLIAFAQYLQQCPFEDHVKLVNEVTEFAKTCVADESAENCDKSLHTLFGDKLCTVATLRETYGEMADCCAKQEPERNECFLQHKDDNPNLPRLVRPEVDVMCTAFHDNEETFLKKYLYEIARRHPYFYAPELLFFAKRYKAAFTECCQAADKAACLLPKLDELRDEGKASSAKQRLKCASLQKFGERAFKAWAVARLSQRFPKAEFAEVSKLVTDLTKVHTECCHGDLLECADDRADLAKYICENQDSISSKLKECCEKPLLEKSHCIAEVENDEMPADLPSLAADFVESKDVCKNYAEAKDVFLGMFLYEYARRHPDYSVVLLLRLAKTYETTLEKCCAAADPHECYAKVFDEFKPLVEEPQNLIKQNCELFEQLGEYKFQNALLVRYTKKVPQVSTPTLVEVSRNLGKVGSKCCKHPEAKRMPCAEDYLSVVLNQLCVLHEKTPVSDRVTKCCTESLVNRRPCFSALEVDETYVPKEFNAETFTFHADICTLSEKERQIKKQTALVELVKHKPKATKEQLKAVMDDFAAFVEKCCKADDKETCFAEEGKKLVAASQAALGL

## CC1=C(/C=C/C(C)=C/C=C/C(C)=C/C=C/C=C(C)/C=C/C=C(C)/C=C/C2=C(C)C(=O)C(OC(=O)CCC(=O)O)CC2(C)C)C(C)(C)CC(OC(=O)CCC(=O)O)C1=O (racemic) [dAST, disodium salt disuccinate ester of astaxanthin]
[1]
  plasma and tissue levels of nonesterified astaxanthin: significant plasma and tissue levels of nonesterified astaxanthin were achieved
[2]
  concentration of pseudo-solution in water: up to 8 mg/ml; also recorded: approximately 10 mM
Superoxide anion [3]
  inhibition of the induced superoxide anion: complete inhibition
[4]
  protection against cardiac ischemia-reperfusion (I/R) injury: significantly protect against cardiac ischemia-reperfusion (I/R) injury
[5]
  protection against cardiac ischemia-reperfusion (I/R) injury: significantly protect against cardiac ischemia-reperfusion (I/R) injury
[6]
  absorption and tissue distribution after oral administration: rapid absorption of the compound, its cleavage to free astaxanthin, and accumulation in certain target tissues
CX43
  expression of CX43 and GJIC: increased expression of the connexin protein CX43 and GJIC

## CC1=C(/C=C/C(C)=C/C=C/C(C)=C/C=C/C=C(C)/C=C/C=C(C)/C=C/C2=C(C)C(=O)C(OC(=O)CCC(=O)O)CC2(C)C)C(C)(C)CC(OC(=O)CCC(=O)O)C1=O (stereo not shown) [dAST, disodium salt disuccinate ester of astaxanthin]
Superoxide anion [7]
  direct scavenging of superoxide anion: potent direct scavengers of superoxide anion in the aqueous phase
[8]
  myocardial salvage: up to 56%

## CC(C=CC=C(C)C=CC1=C(C)C(=O)C(OC(=O)CCC(=O)[O-])CC1(C)C)=CC=CC=C(C)C=CC=C(C)C=CC1=C(C)C(=O)C(OC(=O)CCC(=O)[O-])CC1(C)C.[Na+].[Na+] [meso-(3R,3′S)-disodium disuccinate astaxanthin]
[9]
  binding to human serum albumin: bound immediately and preferentially to human serum albumin (HSA) at a binding site
